A word on the IC50: it is the concentration that inhibits the measured activity by half. What is called melting point is the temperature of the solid-liquid transition.

Series [1] concerns the target T1, CYP2D6 (Homo sapiens, UniProt P10635).
T1 construct: purchased BD Bioscience
The series can be described thus: Inhibitory action on drug metabolizing enzyme (CYP2D6/AMMC high throughput inhibitor screening kit). Format: in vitro ADME. Particulars: CYP2D6 expression system microsome, AMMC substrate, 37° C. for 30 minutes. The method, then:
(§1) Inhibitory actions on CYP2D6 and CYP3A4 were measured by using a CYP2D6/AMMC high throughput inhibitor screening kit and a CYP3A4/BFC high throughput inhibitor screening kit (both manufactured by BD Bioscience), respectively. That is, an NADPH generation system, a cofactor, and the test compound were dispersed in a 96-well plate, and AMMC (CYP2D6) and BFC (CYP3A4), which were fluorescent substrates, were added to each well. Further, CYP2D6 expression system microsome and CYP3A4 expression system microsome were added to each well and incubated at 37° C. for 30 minutes. […] Incidentally, as a control substance of this test, roflumilast was used.

Series [2] relates to T2, PDE IV isozyme separated from U937 cultured cell.
T2 construct: PDE IV isozyme separated from U937 cultured cell by an ion exchange chromatography was used
Description: PDE IV inhibitory action. The series is classed as biochemical. Particulars: cAMP as substrate, 30° C. for 20 minutes, Probit method. The method, then: PDE IV isozyme separated from U937 cultured cell by an ion exchange chromatography was used. The PDE IV isozyme was added to ethylene glycol so that the final concentration of the isozyme was 30% by weight, and the solution was stored at −20° C. The stored solution was dissolved in use. The enzyme activity was measured by using cAMP as a substrate.
On the other hand, the test compound was dissolved in dimethylsulfoxide (DMSO) so that the final concentration of the test compound was 1% by weight (2.5 μL/tube), and the resulting solution was named Solution B.
Formulation of the incubation buffer (pH 7.5): Tris-hydrochloric acid (50 mM), magnesium chloride (6 mM), dithiothreitol (2.5 mM), 5-nucleotidase (4 μg/mL), bovine serum albumin (0.23 mg/mL), and cAMP (1 μM)
A mixture of the Solution B of the test compound and the Solution A was incubated at 30° C. for 20 minutes. Then, 1 mL of a slurry of an anion exchange resin (AG1-X8, 200-400 mesh, chloride form; manufactured by Bio-Rad Laboratories, Inc.) was added thereto, and the reaction was stopped by adsorption of an unreacted substrate on the resin.
After the stop of the reaction, the reaction mixture was centrifuged at a centrifugal acceleration of 800×g for 10 minutes, and 250 μL of the resulting supernatant was transferred in a vial. To the vial was added 5 mL of ACS-II (a scintillator manufactured by Amarsham Bioscience), and a [^3H]-adenosine radio activity was measured as a PDE IV activity by a liquid scintillation counter.

The target of series [3] is T3, CYP3A4 (Homo sapiens, UniProt P08684).
T3 construct: purchased BD Bioscience
T3 sequence (P08684 whole entry): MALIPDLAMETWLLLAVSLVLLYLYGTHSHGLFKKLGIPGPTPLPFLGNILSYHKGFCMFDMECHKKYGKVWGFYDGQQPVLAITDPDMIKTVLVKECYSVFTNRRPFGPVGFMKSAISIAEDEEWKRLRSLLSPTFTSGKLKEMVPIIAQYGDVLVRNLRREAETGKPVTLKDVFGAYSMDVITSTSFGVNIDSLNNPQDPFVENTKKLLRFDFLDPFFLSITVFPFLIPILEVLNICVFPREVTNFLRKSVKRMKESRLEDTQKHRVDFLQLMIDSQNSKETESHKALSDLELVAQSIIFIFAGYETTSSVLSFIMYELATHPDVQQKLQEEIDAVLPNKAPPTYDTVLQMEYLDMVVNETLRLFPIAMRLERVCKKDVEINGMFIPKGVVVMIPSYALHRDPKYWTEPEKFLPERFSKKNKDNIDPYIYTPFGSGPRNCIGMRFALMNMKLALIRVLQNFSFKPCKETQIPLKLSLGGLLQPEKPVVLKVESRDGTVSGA
Description: Inhibitory action on drug metabolizing enzyme (CYP3A4/BFC high throughput inhibitor screening kit). The series is classed as in vitro ADME. The settings on record: CYP3A4 expression system microsome, BFC substrate, 37° C. for 30 minutes. The method, then:
as §1

For series [4], the system named is TNFα production. The series can be described thus: Inhibitory action on galactosamine- and LPS-induced TNFα production. The series is classed as in vivo. Particulars: mouse, 0.5 mg/kg orally, serum TNFα one hour after galactosamine and LPS i.v., ELISA. The method, then:
A dose (0.5 mg/kg) of the test compound suspended in 0.5% (W/V) CMC-Na aqueous solution was orally administered to a mouse. After one hour, galactosamine (800 mg/kg) and LPS (5 μg/kg) were intravenously administered to induce TNFα production. The amount of TNFα in serum one hour after the administration of galactosamine and LPS was measured by ELISA method.
(In general: In an ELISA, binding on a coated surface is turned into a signal by an enzyme label.)

T1 sequence (P10635 whole entry): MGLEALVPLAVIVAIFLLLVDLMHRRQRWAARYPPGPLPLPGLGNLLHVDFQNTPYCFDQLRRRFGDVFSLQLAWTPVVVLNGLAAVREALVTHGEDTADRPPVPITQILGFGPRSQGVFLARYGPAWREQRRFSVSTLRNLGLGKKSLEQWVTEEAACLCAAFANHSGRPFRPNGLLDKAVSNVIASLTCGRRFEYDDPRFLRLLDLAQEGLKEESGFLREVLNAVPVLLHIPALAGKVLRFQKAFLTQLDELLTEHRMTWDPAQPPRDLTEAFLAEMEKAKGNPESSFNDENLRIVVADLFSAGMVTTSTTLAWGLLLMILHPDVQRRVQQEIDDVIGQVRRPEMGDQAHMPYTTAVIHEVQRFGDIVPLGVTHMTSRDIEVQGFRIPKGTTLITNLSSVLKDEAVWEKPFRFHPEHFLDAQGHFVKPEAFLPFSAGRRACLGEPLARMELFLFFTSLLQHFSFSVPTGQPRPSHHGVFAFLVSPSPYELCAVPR

Take `O=c1c2c(Cc3ccccc3C(F)(F)F)n[nH]c2c2cccnc2n1-c1ccccc1` [Example 8, 5-Phenyl-3-(2-trifluoromethylbenzyl)-1H-pyrazolo[4,3-c][1,8]naphthyridin-4(5H)-one]: the melting point was 292 to 294 °C. In series [1], the IC50 was over 10 µM. Also, the IC50 in series [2] was determined as 0.003 µM. The molecule further had an IC50 in series [3] of over 10 µM. The “Inhibitory rate (%) of TNFα production in 0.5 mg/kg” value (from here on “Inhibitory rate (%)”) in series [4] worked out at 51%.

Take `O=c1c2c(Cc3ccccc3)n[nH]c2c2cccnc2n1-c1cccc(C(F)(F)F)c1` [Example 2, 3-Benzyl-5-(3-trifluoromethylphenyl)-1H-pyrazolo[4,3-c][1,8]-naphthyridin-4(5H)-one]: in series [2], the IC50 stood at 0.007 µM. Moreover, the “Inhibitory rate (%)” value in series [4] turned out to be 55%.

Turning to `O=c1c2c(Cc3ccccc3)n[nH]c2c2cccnc2n1-c1cccc(OC(F)(F)F)c1` [Example 1, 3-Benzyl-5-(3-trifluoromethoxyphenyl)-1H-pyrazolo[4,3-c][1,8]-naphthyridin-4(5H)-one], the IC50 in series [2] was found to be 0.003 µM. In addition, the “Inhibitory rate (%)” value in series [4] is 47%.

On to `O=C(Nc1c(Cl)cncc1Cl)c1ccc(OC(F)F)c(OCC2CC2)c1` [Roflumilast, reference compound], for which the “Inhibitory rate (%)” value in series [4] worked out at 50%.

`CC(c1ccccc1)c1n[nH]c2c1c(=O)n(-c1ccccc1)c1ncccc21` (centres unmarked) [Example 11, 5-Phenyl-3-(1-phenylethyl)-1H-pyrazolo[4,3-c][1,8]naphthyridin-4(5H)-one]: the IC50 in series [1] is over 10 µM; in series [2], 0.014 µM; in series [3] it was 8.9 µM. Also, the “Inhibitory rate (%)” value in series [4] is recorded as 49%.

Values taken from patent US8193356B2, “Heterocycle compound, and production process and application thereof” (Aska Pharmaceutical Co., Ltd., priority 2005, dated 2012).
